In patent publication US20230146675A1, “PYRIMIDO[5,4-d]PYRIMIDINE DERIVATIVES AS ENT INHIBITORS FOR THE TREATMENT OF CANCERS, AND COMBINATION THEREOF WITH ADENOSINE RECEPTOR ANTAGONISTS” (ITEOS BELGIUM SA, priority 2020, published 2023) one finds IC50 data, which are given here for 22 compounds.

This assay deals with T1, human ENT1 (Homo sapiens, UniProt Q99808).
T1 sequence (Q99808 1-456): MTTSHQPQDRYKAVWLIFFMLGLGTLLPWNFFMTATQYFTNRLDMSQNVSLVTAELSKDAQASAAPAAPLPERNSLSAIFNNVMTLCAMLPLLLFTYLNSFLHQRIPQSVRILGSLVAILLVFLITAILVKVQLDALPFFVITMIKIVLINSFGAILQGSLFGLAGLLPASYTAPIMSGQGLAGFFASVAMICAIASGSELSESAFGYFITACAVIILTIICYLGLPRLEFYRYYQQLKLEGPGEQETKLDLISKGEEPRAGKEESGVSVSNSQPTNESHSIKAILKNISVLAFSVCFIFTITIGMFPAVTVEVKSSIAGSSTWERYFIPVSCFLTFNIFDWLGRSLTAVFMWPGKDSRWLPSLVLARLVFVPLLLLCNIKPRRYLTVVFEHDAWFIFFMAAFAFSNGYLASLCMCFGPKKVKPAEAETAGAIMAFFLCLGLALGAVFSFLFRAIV
The experiment in a line: ENT1 binding assay (competition with Sahenta-DY647 on JAR cells). On the set-up: JAR cells expressing ENT1 were bought from ATCC; host or cells: JAR cells. As to conditions: binned IC50. In a few lines: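 JAR cells were incubated with test compounds and the fluorescent ligand Sahenta-DY647 in competition. Plates were washed twice by centrifugation (4 min, 400 rcf, 4 °C). Binding potency was derived from the final fluorescence.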
With `COCCN(CCOC)c1nc(N2CCN(C)C(=O)C2)c2nc(N(CCOC)Cc3cc(OC)c(OC)c(OC)c3)nc(N3CCC(OC)CC3)c2n1` [Compound 269, 4-(2-(bis(2-methoxyethyl)amino)-6-((2-methoxyethyl)(3,4,5-trimethoxybenzyl)amino)-8-(4-methoxypiperidin-1-yl)pyrimido[5,4-d]pyrimidin-4-yl)-1-methylpiperazin-2-one], the 50% inhibitory concentration (IC50) (as a rule, the midpoint of a concentration-inhibition curve) was below 100 nM.

Compound `COCCN(CCOC)c1nc(N2CCC(OC)CC2)c2nc(N(CCO)CCO)nc(N3CCN(C)C(=O)C3)c2n1` [Compound 270, 4-(2-(bis(2-hydroxyethyl)amino)-6-(bis(2-methoxyethyl)amino)-8-(4-methoxypiperidin-1-yl)pyrimido[5,4-d]pyrimidin-4-yl)-1-methylpiperazin-2-one] returned a half-inhibitory concentration (IC50) of 100 to 500 nM.

`COCCN(CCOC)c1nc(N2CCN(C)C(=O)C2)c2nc(N(CCO)CCO)nc(N3CCC(OC)CC3)c2n1` [Compound 271, 4-(6-(bis(2-hydroxyethyl)amino)-2-(bis(2-methoxyethyl)amino)-8-(4-methoxypiperidin-1-yl)pyrimido[5,4-d]pyrimidin-4-yl)-1-methylpiperazin-2-one] displayed a 50% inhibitory concentration (IC50) of 500 to 1000 nM.

In turn, `CCN(CCN1CCCCC1)c1nc(N2CCN(C)C(=O)C2)c2nc(N(CCOC)CCOC)nc(N3CCC(OC)CC3)c2n1` [Compound 272, 4-(6-(bis(2-methoxyethyl)amino)-2-(ethyl(2-(piperidin-1-yl)ethyl)amino)-8-(4-methoxypiperidin-1-yl)pyrimido[5,4-d]pyrimidin-4-yl)-1-methylpiperazin-2-one] registered an IC50 of 100 to 500 nM.

In the case of `COCCN(CCO)c1nc(N2CCN(C)C(=O)C2)c2nc(N(CCOC)CCOC)nc(N3CCC(OC)CC3)c2n1` [Compound 275, 4-(6-(bis(2-methoxyethyl)amino)-2-((2-hydroxyethyl)(2-methoxyethyl)amino)-8-(4-methoxypiperidin-1-yl)pyrimido[5,4-d]pyrimidin-4-yl)-1-methylpiperazin-2-one], the half-inhibitory concentration (IC50) was below 100 nM.

Consider `COCCN(CCOC)c1nc(N2CCN(C)C(=O)C2)c2nc(N(CCO)CCOC)nc(N3CCC(OC)CC3)c2n1` [Compound 276, 4-(2-(bis(2-methoxyethyl)amino)-6-((2-hydroxyethyl)(2-methoxyethyl)amino)-8-(4-methoxypiperidin-1-yl)pyrimido[5,4-d]pyrimidin-4-yl)-1-methylpiperazin-2-one], for which the IC50 lay in the range of 100 to 500 nM.

`COCCN(CCOC)c1nc(N2CCC(OC)CC2)c2nc(N(CCO)CCN(C)C(C)=O)nc(N3CCN(C)C(=O)C3)c2n1` [Compound 277, N-(2-((6-(bis(2-methoxyethyl)amino)-8-(4-methoxypiperidin-1-yl)-4-(4-methyl-3-oxopiperazin-1-yl)pyrimido[5,4-d]pyrimidin-2-yl)(2-hydroxyethyl)amino)ethyl)-N-methylacetamide]: the IC50 lay in the range of 100 to 500 nM.

The compound `COCCN(CCOC)c1nc(N2CCN(C)C(=O)C2)c2nc(N3CCNC(=O)C3)nc(N3CCC(OC)CC3)c2n1` [Compound 278, 4-(2-(bis(2-methoxyethyl)amino)-8-(4-methoxypiperidin-1-yl)-6-(3-oxopiperazin-1-yl)pyrimido[5,4-d]pyrimidin-4-yl)-1-methylpiperazin-2-one] gave an IC50 of 100 to 500 nM.

Compound `COCCN(CCOC)c1nc(N2CCN(C)C(=O)C2)c2nc(N3CCN(S(C)(=O)=O)CC3)nc(N3CCC(OC)CC3)c2n1` [Compound 279, 4-(2-(bis(2-methoxyethyl)amino)-8-(4-methoxypiperidin-1-yl)-6-(4-(methylsulfonyl)piperazin-1-yl)pyrimido[5,4-d]pyrimidin-4-yl)-1-methylpiperazin-2-one] registered an IC50 of 100 to 500 nM.

In turn, `COCCN(CCOC)c1nc(N2CCC(OC)CC2)c2nc(N(CCO)CCCS(C)(=O)=O)nc(N3CCN(C)C(=O)C3)c2n1` [Compound 280, 4-(6-(bis(2-methoxyethyl)amino)-2-((2-hydroxyethyl)(3-(methylsulfonyl)propyl)amino)-8-(4-methoxypiperidin-1-yl)pyrimido[5,4-d]pyrimidin-4-yl)-1-methylpiperazin-2-one] registered an IC50 of 100 to 500 nM.

Turning to `COCCN(CCOC)c1nc(N2CCN(C)C(=O)C2)c2nc(N3CCN(C(C)=O)CC3)nc(N3CCC(OC)CC3)c2n1` [Compound 281, 4-(6-(4-acetylpiperazin-1-yl)-2-(bis(2-methoxyethyl)amino)-8-(4-methoxypiperidin-1-yl)pyrimido[5,4-d]pyrimidin-4-yl)-1-methylpiperazin-2-one], the half-inhibitory concentration (IC50) lay in the range of 500 to 1000 nM.

On to `COCCN(CCOC)c1nc(N2CCC(OC)CC2)c2nc(N3CCn4ncnc4C3)nc(N3CCN(C)C(=O)C3)c2n1` [Compound 282, 4-(6-(bis(2-methoxyethyl)amino)-2-(5,6-dihydro-[1,2,4]triazolo[1,5-a]pyrazin-7(8H)-yl)-8-(4-methoxypiperidin-1-yl)pyrimido[5,4-d]pyrimidin-4-yl)-1-methylpiperazin-2-one], for which the IC50 lay within 100 to 500 nM.

For `COCCN(CCOC)c1nc(N2CCN(C)C(=O)C2)c2nc(N3CCn4ncnc4C3)nc(N3CCC(OC)CC3)c2n1` [Compound 283, 4-(2-(bis(2-methoxyethyl)amino)-6-(5,6-dihydro-[1,2,4]triazolo[1,5-a]pyrazin-7(8H)-yl)-8-(4-methoxypiperidin-1-yl)pyrimido[5,4-d]pyrimidin-4-yl)-1-methylpiperazin-2-one], the IC50 lay within 500 to 1000 nM.

In turn, `COCCN(CCOC)c1nc(N2CCN(C)C(=O)C2)c2nc(N3CCN(C(=O)OC)CC3)nc(N3CCC(OC)CC3)c2n1` [Compound 284, methyl 4-(6-(bis(2-methoxyethyl)amino)-4-(4-methoxypiperidin-1-yl)-8-(4-methyl-3-oxopiperazin-1-yl)pyrimido[5,4-d]pyrimidin-2-yl)piperazine-1-carboxylate] registered an IC50 of 500 to 1000 nM.

`COCCN(CCn1ccnc1)c1nc(N2CCN(C)C(=O)C2)c2nc(N(CCOC)CCOC)nc(N3CCC(OC)CC3)c2n1` [Compound 285, 4-(2-((2-(1H-imidazol-1-yl)ethyl)(2-methoxyethyl)amino)-6-(bis(2-methoxyethyl)amino)-8-(4-methoxypiperidin-1-yl)pyrimido[5,4-d]pyrimidin-4-yl)-1-methylpiperazin-2-one] yielded an IC50 of 100 to 500 nM.

Regarding `COCCN(CCOC)c1nc(N2CCN(C)C(=O)C2)c2nc(N(CCOC)CCn3ccnc3)nc(N3CCC(OC)CC3)c2n1` [Compound 286, 4-(6-((2-(1H-imidazol-1-yl)ethyl)(2-methoxyethyl)amino)-2-(bis(2-methoxyethyl)amino)-8-(4-methoxypiperidin-1-yl)pyrimido[5,4-d]pyrimidin-4-yl)-1-methylpiperazin-2-one], the IC50 fell in the range of 100 to 500 nM.

Turning to `COCCN(CCOC)c1nc(N2CCC(OC)CC2)c2nc(N3CCn4nncc4C3)nc(N3CCN(C)C(=O)C3)c2n1` [Compound 287, 4-(6-(bis(2-methoxyethyl)amino)-2-(6,7-dihydro-[1,2,3]triazolo[1,5-a]pyrazin-5(4H)-yl)-8-(4-methoxypiperidin-1-yl)pyrimido[5,4-d]pyrimidin-4-yl)-1-methylpiperazin-2-one], the half-inhibitory concentration (IC50) lay in the range of 100 to 500 nM.

On to `COCCN(CCOC)c1nc(N2CCN(C)C(=O)C2)c2nc(N3CCn4nncc4C3)nc(N3CCC(OC)CC3)c2n1` [Compound 288, 4-(2-(bis(2-methoxyethyl)amino)-6-(6,7-dihydro-[1,2,3]triazolo[1,5-a]pyrazin-5(4H)-yl)-8-(4-methoxypiperidin-1-yl)pyrimido[5,4-d]pyrimidin-4-yl)-1-methylpiperazin-2-one], for which the IC50 was 100 to 500 nM.

The compound `COCCN(CCCS(C)(=O)=O)c1nc(N2CCN(C)C(=O)C2)c2nc(N(CCOC)CCOC)nc(N3CCC(OC)CC3)c2n1` [Compound 289, 4-(6-(bis(2-methoxyethyl)amino)-2-((2-methoxyethyl)(3-(methylsulfonyl)propyl)amino)-8-(4-methoxypiperidin-1-yl)pyrimido[5,4-d]pyrimidin-4-yl)-1-methylpiperazin-2-one] registered an IC50 below 100 nM.

`COCCN(CCOC)c1nc(N2CCC(OC)CC2)c2nc(N3CCc4[nH]cnc4C3)nc(N3CCN(C)C(=O)C3)c2n1` [Compound 290, 4-(6-(bis(2-methoxyethyl)amino)-8-(4-methoxypiperidin-1-yl)-2-(1,4,6,7-tetrahydro-5H-imidazo[4,5-c]pyridin-5-yl)pyrimido[5,4-d]pyrimidin-4-yl)-1-methylpiperazin-2-one] gave a half-maximal inhibitory concentration (IC50) of 500 to 1000 nM.

As to `COCCN(CCOC)c1nc(N2CCN(C)C(=O)C2)c2nc(N3CCc4[nH]cnc4C3)nc(N3CCC(OC)CC3)c2n1` [Compound 291, 4-(2-(bis(2-methoxyethyl)amino)-8-(4-methoxypiperidin-1-yl)-6-(1,4,6,7-tetrahydro-5H-imidazo[4,5-c]pyridin-5-yl)pyrimido[5,4-d]pyrimidin-4-yl)-1-methylpiperazin-2-one], the half-inhibitory concentration (IC50) fell in the range of 500 to 1000 nM.

In the case of `COCCN(CCOC)c1nc(N2CCN(C)C(=O)C2)c2nc(N3CCC(S(C)(=O)=O)CC3)nc(N3CCC(OC)CC3)c2n1` [Compound 292, 4-(2-(bis(2-methoxyethyl)amino)-8-(4-methoxypiperidin-1-yl)-6-(4-(methyisulfonyl)piperidin-1-yl)pyrimido[5,4-d]pyrimidin-4-yl)-1-methylpiperazin-2-one], the concentration for half-maximal inhibition (IC50) lay within 100 to 500 nM.
